From patent publication US8507446B2, “Use of PEDF-derived polypeptides for treating liver cirrhosis” (MacKay Memorial Hospital, priority 2011, dated 2013)

B1: pigment-epithelium-derived factor (protein, UniProt P36955 20-418, looked up)
Pigment epithelium-derived …: QNPASPPEEGSPDPDSTGALVEEEDPFFKVPVNKLAAAVSNFGYDLYRVRSSTSPTTNVLLSPLSVATALSALSLGAEQRTESIIHRALYYDLISSPDIHGTYKELLDTVTAPQKNLKSASRIVFEKKLRIKSSFVAPLEKSYGTRPRVLTGNPRLDLQEINNWVQAQMKGKLARSTKEIPDEISILLLGVAHFKGQWVTKFDSRKTSLEDFYLDEERTVRVPMMSDPKAVLRYGLDSDLSCKIAQLPLTGSMSIIFFLPLKVTQNLTLIEESLTSEFIHDIDRELKTVQAVLTVPKLKLSYEGEVTKSLQEMKLQSLFDSPDFSKITGKPIKLTQVEHRAGFEWNEDGAGTTPSPGLQPAHLTFPLDYHLNQPFIFVLRDTDTGALLFIGKILDPRGP
notes: pigment-epithelium-derived factor protein, used at 4.5 nM (200 ng/ml)

Columns and labels:
[1] = tested on: culture-activated primary rat HSCs; experiment: Activation of culture-activated primary hepatic stellate cells; assay type: cell-based; conditions: for Col1a1 expression (immunoblot) / MCP-1 expression (immunoblot) / amounts of PPARγ (immunoblot) / α-SMA expression (immunoblot): 48 hours vs solvent, 4.5 nM PEDF, 50 nM 34-mer, 50 nM 44-mer; for α-SMA by immunofluorescent staining: 34-mer compared with 44-mer PEDF treatment; for HSC morphology: phase contrast / immunofluorescence
Experimental: Primary HSCs were isolated by in situ perfusion with collagenase and pronase from livers of male Sprague-Dawley rats (300-450 g), followed by a 25%/50% Percoll gradient centrifugation at 4° C. HSCs were isolated from the upper layer of the discontinuous Percoll density gradient as previously described method (Titos et al., FASEB J 2003 17:1745-1747). Then cells were re-suspended in Dulbecco's modified Eagle's medium (DMEM) supplemented with 10% fetal bovine serum (FBS) and 1% penicillin/streptomycin and plated on 100-mm plastic dishes. Cell purity was verified to be approximately 95-98% by vitamin A fluorescence on day 2 after isolation. HSCs were activated by culturing the cells on plastic for 10 days and then passaged by trypsin-EDTA treatment. Subsequently, the activated HSCs were incubated in 10% FBS-DMEM for 2 days and then used for further experiments.
(§1) Deparaffinized liver tissue sections or 4% paraformaldehyde fixed HSCs were blocked with 10% goat serum and 5% BSA for 1 h. Dual staining was done using primary antibodies against human PEDF (se-59641; Santa Cruz Biotechnology, CA, USA) or α-SMA (ab5694 or ab7817; Abcam), PPARγ (sc-7273; Santa Cruz Biotechnology), albumin (sc-46295; Santa Cruz Biotechnology) or cytokeratin (CK) 18 (GTX112978; GeneTex, Inc.) at 37° C. for 2 h, followed by incubation with the appropriate rhodamine- or FITC-conjugated donkey IgG for 1 hr at room temperature. Nuclei were located by counterstaining with Hoechst 33258 for 7 min. Images were captured using a Zeiss epifluorescence microscope with a CCD camera.
(§2) Cells were scraped into lysis buffer (150 μL/35-mm well) containing 20 mM HEPES (pH 7.4), 1% SDS, 150 mM NaCl, 1 mM EGTA, 5 mM β-glycerophosphate, 10 mM sodium pyrophosphate, 10 mM sodium fluoride, […] sodium orthovanadate, 10 μg/mL leupeptin, and 10 μg/mL aprotinin. The lysate was incubated on ice for 15 min. Total cell lysate was also separated into cytoplasmic and nuclear fractions using the NE-PER nuclear and cytoplasmic extraction kit (Pierce, Rockford, Ill.) according to the manufacturer's instructions. Each cellular fraction was then resolved by SDS-PAGE and then electrotransferred to polyvinylidene difluoride membranes (Millipore, Bedford, Mass.) and processed for immunoblot analysis. Antibodies used in the immunoblot study included human PEDF (sc-59641; Santa Cruz Biotechnology), mouse PEDF (sc-74253; Santa Cruz Biotechnology), type I collagen 1A1 (sc-25974; Santa Cruz Biotechnology), α-SMA (ab5694 or ab7817; Abcam), PPARγ••(sc-7273; Santa Cruz Biotechnology), MCP-1 (ab7202; Abcam Ltd), α-actin (Sigma), epithelial cell adhesion molecule (EpCAM; sc-66020; Santa Cruz Biotechnology), hepatocytes nuclear factor and (HVF)3-β (sc-6554; Santa Cruz Biotechnology). Proteins of interest were detected using the appropriate IgG-HRP secondary antibody and ECL reagent. X-ray films were scanned on a Model GS-700 Imaging Densitometer (Bio-Rad Laboratories, Hercules, Calif.) and analyzed using Labworks 4.0 software. For quantification, blots from at least three independent experiments were used.
After treatment, primary rat HSCs were fixed for 2 h with 4% paraformaldehyde, washed by PBS and then permeabilized for 5 min with 0.1% Triton X-100. Changes in F-actin structures were detected by […] rhodamine-conjugated phalloidin (Sigma) for 1 h at room temperature. Stained F-actin was visualized using a Zeiss Axiovert 25 microscope.
To verify whether the PEDF-derived peptides, particularly, 34-mer PEDF and 44-mer PEDF, may prevent HSCs from activation, culture-activated primary rat HSCs were treated with 4.5 nM PEDF, 50 nM 44-mer, 50 nM 34-mer or PEDF solvent (20 mM Tris/HCl, pH 7.4, 100 mM NaCl) for 48 hours. […] Immunofluorescent assay also confirmed that 34-mer PEDF reduced the levels of α-SMA in culture-activated HSCs as compared with 44-mer PEDF treatment (FIG. 6F). Such result is consistent with the finding in Example 1 that PEDF prevents HSCs from activation by induction of PPARγ.

[2] = tested on: liver-derived progenitor cells (LDPCs); experiment: Self-renewal of LDPCs over two passages and differentiation into hepatocytes; assay type: cell-based, rat; conditions: for autofluorescence (LDPC marker): 4.5 nM PEDF, 50 nM 34-mer or 50 nM 44-mer; for autofluorescence (LDPC marker) / self-renewal by expression of LDPC markers EpCAM and HNF3-β (immunoblot): two passages, 35 days; for ability of expanded LDPCs to differentiate into hepatocytes (albumin and CK-18 staining): immunofluorescence
Experimental: (§3) Liver cells from Sprague Dawley rats were harvested by 2-step in situ collagenase perfusion technique. The cells were then washed in phosphate buffered saline and centrifuged (50 g for 5 minutes) twice at room temperature. The cells were not further subjected to any fractionation as previously described (Sahin M B et al., Liver Transpl. 2008 14(3):333-45). Freshly isolated rat liver cells were cultured in a medium consisting of 75% Dulbecco's modified Eagle's medium (DMEM) and 25% MCDB 201 (Sigma-Aldrich) supplemented with 10% fetal bovine serum, 1 mg/mL of bovine serum albumin (BSA; Sigma), 100 μM of β-mercaptoethanol (Gibco, Carlsbad, Calif.), 25 mM of 4-2-hydroxyethyl-1-piperazineethanesulfonic acid (HEPES), 5 mM of Nicotinamide (Sigma-Aldrich), 1% SITE liquid medium (Sigma-Aldrich), and penicillin (100 μg/ml)/streptomycin (100 μg/ml; Invitrogen, Carlsbad, Calif.) on Type I collagen (Sigma, St. Louis, Mo.) coated tissue culture plates or dishes at a density of 1×10^4 cells/cm^2 at 37° C. in 5% CO2.
as §1, §2
It has been reported that LDPCs may not be expanded in conventional basal medium, unless growth factor(s) were added therein (Sahin et al., Liver Transpl. 2008 14(3):333-45). To test the self-renewal property of PEDF derived peptides on LDPCs, liver cells were isolated and grown in separate medium including 4.5 nM (200 ng/ml) PEDF, 50 nM 34-mer or 50 nM 44-mer for two passages, which took a period of 35 days. The newly produced LDPCs in the cultured cells were confirmed by the detection of autofluorescence emitted therefrom; as well as two LDPC markers, which are epithelial cell adhesion molecule (EpCAM) and hepatocytes nuclear factor 3•••(HNF3)-β, by immunoblot analysis. […]

[3] = tested on: liver-derived progenitor cells (LDPCs) in primary rat liver cells; experiment: Clonogenic capacity of liver cells (LDPC colony formation); assay type: cell-based; conditions: basal medium with 4.5 nM PEDF, 50 nM 34-mer, 50 nM 44-mer or 10% FBS; after 11 days in culture
Experimental: as §3
To verify the function of 44-mer PEDF, primary rat liver cells were isolated in accordance with steps described above and cultivated (about 1×10^5 per well of 6-well plate; 1×10^4 cells/cm^2) in a conventional basal medium, which was further supplemented with 4.5 nM PEDF, 50 nM 34-mer PEDF, 50 nM 44-mer PEDF or 10% FBS. Medium was changed every 3 days. After being placed in culture for 11 days, clonogenic capacity of liver cells was continuously monitored by phase-contrast microscopy. During this time period, liver-derived progenitor cells (LDPCs) began markedly emerged in primary liver cultures while hepatocytes started dying out. Few colonies were formed by liver cells when continuously cultivated in basal medium, or medium supplemented with 34-mer or FBS.

HSC-T6 cells = experiment: PPARγ induction and PPARγ siRNA reversal in HSC-T6 cells; assay type: cell-based, rat
Experimental: HSC-T6 cells, a rat immortalized HSC, retained all features of activated HSCs and was kindly provided by Dr. Friedman S L (Kim et al., J Biol Chem 1998 273:33750-33758). HSC-T6 cells were grown in Waymouth medium supplemented with 10% FBS at 37° C. in a humidified atmosphere of 5% CO2.
The total RNA was extracted from cells using the TRIzol (Invitrogen, Carlsbad, Calif.). […] The intensities of the PCR products were quantified using a FUJI LAS-3000 densitometer and Multi Gauge Ver. […]
Cells were scraped into lysis buffer (150 μL/35-mm well) containing 20 mM HEPES (pH 7.4), 1% SDS, 150 mM NaCl, 1 mM EGTA, 5 mM β-glycerophosphate, 10 mM sodium pyrophosphate, 10 mM sodium fluoride, […] sodium orthovanadate, 10 μg/mL leupeptin, and 10 μg/mL aprotinin. […] Proteins of interest were detected using the appropriate IgG-HRP secondary antibody and ECL reagent. X-ray films were scanned on a Model GS-700 Imaging Densitometer (Bio-Rad Laboratories, Hercules, Calif.) and analyzed using Labworks 4.0 software. For quantification, blots from at least three independent experiments were used. […]

Row | Molecule | Col1a1 expression (immunoblot) [1] | MCP-1 expression (immunoblot) [1] | amounts of PPARγ (immunoblot) [1] | α-SMA expression (immunoblot) [1] | α-SMA by immunofluorescent staining ([1]; culture-activated HSCs) | HSC morphology ([1]; culture-activated HSCs) | autofluorescence (LDPC marker) [2] | colonies of LDPCs formed [3] | ability of expanded LDPCs to differentiate into hepatocytes (albumin and CK-18 staining) [2] | self-renewal by expression of LDPC markers EpCAM and HNF3-β (immunoblot) [2] | suppressive effects of PEDF on HSC activation (α-SMA, Col1a1, MCP-1) (HSC-T6 cells; siRNA pretreatment 16 hours before PEDF, 10 nM siRNA) | stress fiber (F-actin, rhodamine-phalloidin staining) ([1]; culture-activated HSCs) | mRNA and protein expression of PPARγ (HSC-T6 cells; 48 hours, RT-PCR and immunoblot)
1 | 34-mer PEDF: synthetic human peptide, the segment of PEDF from amino acid residues 44 to 77 (Ac-DPFFKVPVNKLAAAVSNFGYDLYRVRSSTSPTTN-NH2) | reduced | reduced | enhanced | reduced | reduced | causes reversal of the activated HSC morphology | very little autofluorescence or none at all | Few colonies | – | – | – | – | –
2 | Ac-VLLSPLSVATALSALSLGAEQRTESIIHRALTTDLISSPDIHGT-NH2 [44-mer PEDF] | does not possess such effects | does not possess such effects | does not possess such effects | does not possess such effects | – | – | emitted autofluorescence | dense colonies | retain the ability of differentiating into hepatocyte | exhibits self-renewal property | – | – | –
3 | PPARγ siRNA: rat PPARγ siRNA (SEQ ID NO: 7/8) or a mixture of four rat PPARγ siRNAs (SMART-pools) (chain 1 CACCAUUUGUCAUCUACGATT; chain 2 UCGUAGAUGACAAAUGGUGTT; chemistry not given here) [reference compound] | – | – | – | – | – | – | – | – | – | – | significantly reduced the suppressive effects of PEDF | – | –
4 | B1 | significantly reduced | significantly reduced | enhanced | significantly reduced | reduced | dendritic-like morphology with retracted cytoplasm | emitted autofluorescence | dense colonies | retain the ability of differentiating into hepatocyte | exhibits self-renewal property | – | reduced | induced
